We go through eleven compounds from patent publication US5440033A, “Indolyl-, pyrrolyl- and pyrazolyl substituted benzazepines” (Schering Corporation, priority 1993, dated 1995).

Each structure is given as a SMILES string. Read-outs that look alike come from different tables or passages of the source.

One series deals with T1, dopamine D-1 receptor (Rattus norvegicus, UniProt P18901).
T1 construct: Striatal tissue was excised, pooled, and homogenized; from tissue; host or cells: rat brain striatum (male Sprague-Dawley)
T1 sequence (P18901 whole entry): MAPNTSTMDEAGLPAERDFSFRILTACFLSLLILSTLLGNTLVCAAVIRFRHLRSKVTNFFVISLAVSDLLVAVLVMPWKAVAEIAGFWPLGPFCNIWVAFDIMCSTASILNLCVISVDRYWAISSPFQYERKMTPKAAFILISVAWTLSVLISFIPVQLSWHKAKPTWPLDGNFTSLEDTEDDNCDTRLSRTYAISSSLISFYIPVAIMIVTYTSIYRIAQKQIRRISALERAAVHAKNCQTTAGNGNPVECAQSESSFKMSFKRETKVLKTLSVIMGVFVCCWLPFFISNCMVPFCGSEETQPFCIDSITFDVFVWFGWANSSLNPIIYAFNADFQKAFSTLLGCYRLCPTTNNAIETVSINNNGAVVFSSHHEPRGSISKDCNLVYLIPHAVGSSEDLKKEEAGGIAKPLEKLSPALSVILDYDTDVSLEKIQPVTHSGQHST
The series can be described thus: Competitive inhibition assay, displacement of 3H-SCH 23390 (D1), rat striatal tissue. It counts as binding, rat (male Sprague-Dawley). The conditions noted are these: 3H-SCH 23390 0.3 nM, rat striatum, pH 7.4, 37° C., 15 minutes. The source says:
(§1) A methodology for characterization of binding and an interpretation of the data are described by Billard et al., Life Sciences 35, 1885 (1984) in which the binding of the benzazepine (R)-(+)-8-chloro-2,3,4,5-tetrahydro-3-methyl-5-phenyl-1H-3-benzazepin-7-olhemimaleate (SCH 23390) to the dopamine D-1 receptor is characterized.
(§2) Tritiated SCH 23390 and tritiated spiperone (a potent D-2 ligand) were obtained as described in the Billard et al. reference supra and serially diluted in 0.05M Tris buffer, pH 7.4, as required. A compound of the invention is diluted in 0.05M Tris buffer, pH 7.4, as required.
(§3) Male Sprague-Dawley rats (200 to 250 g) from Charles River Breeding Laboratories, Mass. were used to obtain brain tissue. The rats were humanely sacrificed and their brains removed and placed on ice. Striatal tissue was excised, pooled, and homogenized (Brinkman Polytron, 10 seconds) in 100 volumes (w/v) of ice cold 50 mM Tris buffer, pH 7.4 (at 25° C.). The homogenate was centrifuged at 20,000×g for 10 minutes. The resultant pellet was rehomogenized in Tris buffer and centrifuged again. The final pellet was resuspended in 50 mM Tris buffer pH 7.4 containing 120 mM NaCl, […], 1 mM CaCl2, and 1 mM MgCl2.
(§4) Polypropylene incubation tubes received 100 μl of the individual test compounds at various concentrations dissolved or suspended in 0.05M Tris, pH 7.4 containing 4 mg/ml methylcellulose, 100 μl of a solution of ^3 H-SCH 23390 in Tris buffer (final reaction mixture concentration=0.3 nM) or 100 μl of a solution of 3H-spiperone in Tris buffer (final concentration=0.2 nM) and 800 μl of tissue suspension (ca. 3 mg/assay). Tubes were incubated at 37° C. for 15 minutes and rapidly vacuum filtered through Whatman GM/B filters and rinsed 4 times with 4 ml of ice cold 50 mM Tris buffer, pH 7.4. The filters were transferred to scintillation vials, equilibrated with 10 ml of scintillant (Scintosol, Isolab, Inc.) for 16 hours at 25° C. and the radioactivity determined in a liquid scintillation counter. Ki values were determined as described by Billard et al. using the relationship Ki =IC50 /(1+([L]/KD)) wherein IC50 =concentration of test drug necessary to displace 50% of specifically bound ^3 H-Sch 23390, [L]=concentration of radioligand used in the assay, and KD =dissociation constant.

Another series addresses T2, D-2 receptor (Rattus norvegicus, UniProt P61169).
T2 construct: Striatal tissue was excised, pooled, and homogenized; from tissue; host or cells: rat brain striatum (male Sprague-Dawley)
Kind of series: Competitive inhibition assay, displacement of 3H-spiperone (D2), rat striatal tissue. It counts as binding, rat (male Sprague-Dawley). The conditions noted are these: 3H-spiperone 0.2 nM, rat striatum; for Ki: pH 7.4, 37° C., 15 minutes.
Source text: as §1, §2, §3, §4

Series [1] in a line: Conditioned avoidance suppression in rats (CAR). It counts as in vivo. As to conditions: rat; for minimal effective dose: read-out: Rat CAR (minimal effective dose, MED). As to the method:
N.Y. Acad. Sci. 66, 740 (1957). A series of experiments was carried out to assess the ability of the compounds of this invention to suppress the conditioned avoidance response (CAR) in rats.
Rats were required to jump onto a platform located 6.75 inches (17.15 cm) above the grid floor of an experimental chamber in response to a 5-second tone to avoid a 10-second foot shock (0.6 ma). Each experimental session consisted of 20 such trials presented at 30-second intervals. A correct CAR is scored whenever the rat jumps onto the platform during the tone (prior to foot shock). An escape response is scored when the rat jumps onto the platform during a shock. A response failure is defined as the lack of an escape response during the 10-second shock period.
Groups of 6-8 rats were trained in two consecutive days (total of 40 trials). Rats that reached criterion on day 2 (correct CARs on 16 or more of the 20 trials) were treated with either a test drug or vehicle on day 3. Suppression of CAR was analyzed statistically using Student's t-test comparing the performances of drug-treated to vehicle-treated rats.

Series [2] can be described thus: Conditioned avoidance response, monkey (parenthesised entries in the Rat CAR column). It is filed as in vivo.
The mark [3] stands for this setting: @ 1 h, lowest dose tested that significantly (P<0.05) reduced avoidance responding.

T2 sequence (P61169 whole entry): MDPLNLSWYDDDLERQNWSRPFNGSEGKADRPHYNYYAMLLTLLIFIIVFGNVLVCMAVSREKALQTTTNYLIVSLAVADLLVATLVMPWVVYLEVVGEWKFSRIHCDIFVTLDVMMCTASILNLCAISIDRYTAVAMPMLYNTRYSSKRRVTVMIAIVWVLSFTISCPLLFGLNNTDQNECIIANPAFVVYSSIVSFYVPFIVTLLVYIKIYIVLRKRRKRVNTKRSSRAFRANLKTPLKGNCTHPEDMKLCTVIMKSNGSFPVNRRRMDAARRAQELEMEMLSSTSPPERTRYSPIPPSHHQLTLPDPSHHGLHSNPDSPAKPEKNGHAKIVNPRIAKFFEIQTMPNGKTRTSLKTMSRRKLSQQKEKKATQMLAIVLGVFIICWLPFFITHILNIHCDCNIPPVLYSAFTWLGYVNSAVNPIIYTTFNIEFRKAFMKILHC

As to `Cc1cc(C2CN(C)CCc3cc(Cl)c(O)cc32)c(C)n1C` (centres unmarked) [G], the Ki came to 2.8 nM on dopamine D-1 receptor and 383 nM on D-2 receptor. In addition, the minimal effective dose in series [1] (setting [3]) was 10 mg/kg. Besides, the “CAR, monkey” value in series [2] (@ 4 h) was 5 mpk.

As to `CN1CCc2cc(Cl)c(O)cc2C(c2ccn(C)c2)C1` (centres unmarked) [H], the Ki worked out at 2.2 nM on dopamine D-1 receptor and 177 nM at D-2 receptor.

As for `Cc1cc(C2CN(C)CCc3cc(Cl)c(O)cc32)c(C)[nH]1` (racemic) [(±)C], the Ki was 2.8 nM on dopamine D-1 receptor and 2450 nM at D-2 receptor. Moreover, the values for the minimal effective dose in series [1] (setting [3]) and in series [1] (@ 6 h) were 10 mg/kg and 50 mg/kg, respectively. Moreover, the “CAR, monkey” value in series [2] (po @ 6 h) is recorded as 1.5 mpk.

Consider `Cc1cc(C2CN(C)CCc3cc(Cl)c(O)cc32)c(C)[nH]1` (single isomer, unassigned; (+)) [(+)D], for which the Ki stood at 0.54 nM at dopamine D-1 receptor and 590 nM on D-2 receptor. The tremors result in series [1] (30 po) is listed as “tremors at 30 po”. For the same compound, the minimal effective dose in series [1] (setting [3]) was 10 mg/kg.

On dopamine D-1 receptor, `Cc1cc2c(cc1O)C(n1ccc3ccccc31)CN(C)CC2` (centres unmarked) [B] yielded a Ki of 607 nM. Besides, the IC50 at D-2 receptor (printed as IC50 in the Ki column) is more than 10000 nM.

With `CN1CCc2cc(Cl)c(O)cc2C(c2c[nH]c3ccccc23)C1` (centres unmarked) [K], the results for the Ki on dopamine D-1 receptor and on D-2 receptor were 55.2 nM and more than 10000 nM, respectively.

In the case of `CN1CCc2cc(Cl)c(O)cc2C(n2ccc3ccccc32)C1` (centres unmarked) [A], the Ki on dopamine D-1 receptor was 26 nM; at D-2 receptor it was more than 10000 nM.

Take `CN1CCc2cc(Cl)c(O)cc2C(n2cccn2)C1` (centres unmarked) [Compound I]: the Ki was 12 nM on dopamine D-1 receptor and more than 10000 nM on D-2 receptor.

Consider `Cc1cc(C2CN(C)CCc3cc(Cl)c(O)cc32)c(C)[nH]1` (single isomer, unassigned; (-)) [(-)E], for which the Ki was determined as 41 nM on dopamine D-1 receptor and 613 nM on D-2 receptor.

On to `CN1CCc2cc(Cl)c(O)cc2C(c2cccn2C)C1` (centres unmarked) [F], for which the inhibitory constant (Ki) at dopamine D-1 receptor came out at 41 nM; on D-2 receptor it was 10000 nM.

Regarding `Cc1[nH]c2ccccc2c1C1CN(C)CCc2cc(Cl)c(O)cc21` (centres unmarked) [J], the Ki at dopamine D-1 receptor is 127 nM; at D-2 receptor, more than 10000 nM.
